For data set [1] the following is noted: in vivo; cited from earlier work.
Data set [2] concerns M. tuberculosis H37Rv. The class given is in vivo, Mycobacterium tuberculosis. Conditions: for Mean (SD) log10 M. tuberculosis CFU/lung: 5 days per week.
Data set [3] in a line: Oral (PO) 13 week toxicity study, comparison with dog IM/SC exposure. The class given is in vivo, beagle dog. Conditions: 13 week PO study, 18 mg/kg.
In data set [4] the test system is M lepra. Conditions: cited from earlier work.
A short description of data set [5]: Oral (PO) 13 week toxicity study in rats, total exposure. It counts as in vivo. Conditions: rat, top dose of 13 week study.
The target in data set [6] is mycobacterial ATP synthase (Mycobacterium tuberculosis, UniProt P9WPS1+P9WPV7). Conditions: cited from earlier work.

Like-named read-outs stand apart in the source and are kept apart here.

With `CNCC[C@@](O)(c1cccc2ccccc12)[C@H](c1ccccc1)c1cc2cc(Br)ccc2nc1OC` [Formulation M2], the “mean terminal elimination half-life” value in data set [1] is “approximately 5.5 months”.

With `CO[C@H]1/C=C/O[C@@]2(C)Oc3c(C)c(O)c4c(O)c(c(/C=N/N5CCN(C)CC5)c(O)c4c3C2=O)NC(=O)/C(C)=C\C=C\[C@H](C)[C@H](O)[C@@H](C)[C@@H](O)[C@@H](C)[C@H](OC(C)=O)[C@@H]1C` [R, rifampin], the “reduction of mean M. tuberculosis lung CFU count compared to untreated mice” value is given as “approximately 1 log10 CFU/lung” in data set [2] (10 mg/kg by gavage 5/7, after 4 weeks of treatment); “about 2 log10 CFU/lung” in data set [2] (10 mg/kg by gavage 5/7, after 8 weeks of treatment); ~3 log10 CFU/lung in data set [2] (10 mg/kg by gavage 5/7, after 12 weeks of treatment). The “Mean (SD) log10 M. tuberculosis CFU/lung” value in data set [2] (regimen R10 (5/7): rifampin 10 mg/kg, Week 4 of treatment) is 3.39 (0.46) log10 CFU/lung; in data set [2] (regimen R10 (5/7): rifampin 10 mg/kg, Week 8 of treatment), 2.74 (0.62) log10 CFU/lung; in data set [2] (regimen R10 (5/7): rifampin 10 mg/kg, Week 12 of treatment) it was 1.27 (0.85) log10 CFU/lung.

Consider `COc1nc2ccc(Br)cc2cc1[C@@H](c1ccccc1)[C@@](O)(CCN(C)C)c1cccc2ccccc12` [bedaquiline], for which, in data set [3], the “total exposure after PO for the same period” value is given as 13 988 520 ng·h/mL. The “minimal dose killing 99% of bacilli” value in data set [4] is < 5.0 mg/kg/wk. For the same compound, in data set [1], the “mean terminal elimination half-life” value was “approximately 5.5 months”. Also, the “total exposure after PO administration during 3 months” value in data set [5] is reported as 2 385 383 ng·h/mL. In data set [2] (2.67 mg/kg by gavage 5/7, 12 weeks (total 160 mg/kg)), the “decline in lung CFU compared to untreated control mice” value stood at 1.7 log10 CFU/lung. In addition, in data set [2] (5.33 mg/kg by gavage 5/7, 12 weeks (total 320 mg/kg)), the “decline in lung CFU counts” value was “about 3 log10 CFU/lung”. Besides, in data set [2] (8 mg/kg by gavage 5/7, 8 weeks versus 4 weeks), the “additional decrease of lung CFU counts” value came to 1 log10. Moreover, the “decline in lung CFU relative to untreated mice” value in data set [2] (8 mg/kg by gavage 5/7, four weeks) was “about 1.5 log10 CFU/lung”. For the same compound, the “reduction of M. tuberculosis lung CFU compared to untreated mice” value in data set [2] (25 mg/kg by gavage 5/7, after 4 weeks) is on record as “about 1.7 log10 CFU/lung”; in data set [2] (25 mg/kg by gavage 5/7, after 8 weeks), ~4.0 log10 CFU/lung; in data set [2] (25 mg/kg by gavage 5/7, after 12 weeks), ~4.9 log10 CFU/lung. The “Mean (SD) log10 M. tuberculosis CFU/lung” value in data set [2] (regimen B2.67 (5/7): oral bedaquiline 2.67 mg/kg, Week 4 of treatment) is 3.96 (0.35) log10 CFU/lung; in data set [2] (regimen B2.67 (5/7): oral bedaquiline 2.67 mg/kg, Week 8 of treatment), 3.52 (0.38) log10 CFU/lung; in data set [2] (regimen B2.67 (5/7): oral bedaquiline 2.67 mg/kg, Week 12 of treatment) it was 3.16 (0.24) log10 CFU/lung; in data set [2] (regimen B5.33 (5/7): oral bedaquiline 5.33 mg/kg, Week 4 of treatment), 3.83 (0.25) log10 CFU/lung; in data set [2] (regimen B5.33 (5/7): oral bedaquiline 5.33 mg/kg, Week 8 of treatment), 3.15 (0.47) log10 CFU/lung; in data set [2] (regimen B5.33 (5/7): oral bedaquiline 5.33 mg/kg, Week 12 of treatment) it was 1.98 (0.17) log10 CFU/lung. The “Mean (SD) log10 M. tuberculosis CFU/lung” value in data set [2] (regimen B8 (5/7): oral bedaquiline 8 mg/kg, Week 4 of treatment) is given as 3.30 (0.12) log10 CFU/lung; in data set [2] (regimen B8 (5/7): oral bedaquiline 8 mg/kg, Week 8 of treatment), 2.42 (0.26) log10 CFU/lung; in data set [2] (regimen B8 (5/7): oral bedaquiline 8 mg/kg, Week 12 of treatment) it was 0.69 (0.43) log10 CFU/lung; in data set [2] (regimen B25 (5/7): oral bedaquiline 25 mg/kg, Week 4 of treatment) it was 3.01 (0.45) log10 CFU/lung; in data set [2] (regimen B25 (5/7): oral bedaquiline 25 mg/kg, Week 8 of treatment) it was 0.82 (0.49) log10 CFU/lung; in data set [2] (regimen B25 (5/7): oral bedaquiline 25 mg/kg, Week 12 of treatment) it was 0.07 (0.09) log10 CFU/lung. Besides, in data set [6], the “selectivity index for mycobacterial ATP synthase versus eukaryotic mitochondrial ATP synthase” value was “more than 20000”.

The record behind these values is patent US11141384B2, “Long-acting formulations” (Janssen Pharmaceutica NV, priority 2017, dated 2021).
